Results taken from patent US7214668B2, “Phosphonic acid based prodrugs of PMEA and its analogues” (Metabasis Therapeutics, Inc., priority 2002, dated 2007).
Like-named read-outs stand apart in the source and are kept apart here.

Assays:
[1] = PMEApp accumulation in liver organ following oral administration to normal fasted rats; type: in vivo, rat; conditions: 30 mg/kg PMEA equivalents p.o.
Method: PMEA prodrugs were tested in vivo to identify prodrugs with suitable oral bioavailability and favorable intrahepatic activation rates.
Following oral administration of 30-mg/kg prodrug (PMEA equivalents) to normal, fasted rats, liver organ samples were freeze-clamped at 8 hr. […] The retention time of PMEApp was 18.6 minutes.

[2] = test system: freshly isolated rat hepatocytes; conditions: 250 μM prodrug
Method: PMEA prodrugs were tested.
Hepatocytes were prepared from fed Sprague-Dawley rats (250–300 g) according to the procedure of Berry and Friend (Berry, M. N. Friend, D. S., J. Cell Biol. 43:506–520 (1969)) as modified by Groen (Groen, A. K. et al., Eur. J. Biochem 122:87–93 (1982)). Hepatocytes (60 mg/ml wet weight, >85% trypan blue viability) were incubated in 2 ml of krebs-bicarbonate buffer containing 20 mM glucose, and 1 mg/ml BSA for 4 hours in the presence of 250 μM PMEA prodrugs (from 25 mM stock solutions of prodrugs in methanol). At appropriate time points throughout the incubation (0, 1, 2, 4 hours), 400-μl aliquots of the cell suspension were taken and centrifuged through a silicon/mineral oil layer into 10% perchloric acid to extract intracellular nucleotides. The acidic cell extracts were neutralized with 0.3 volumes of 3M KOH/3M […] before evaluating PMEApp levels by ion exchange HPLC (Hewlett Packard 1050) using a Whatman Partisphere SAX (5 μm, 4.6×125 mm) column. Samples were loaded onto the column in 0.3M-ammonium phosphate buffer pH 3.5 and eluted from the column with a gradient to 0.8 M ammonium phosphate pH 3.5.

[3] = test system: liver microsomes isolated from rats induced with dexamethasone; assay: In vitro activation of PMEA prodrug analogues to PMEA by rat liver microsomes
Method: PMEA prodrug analogues were tested for activation to PMEA in reactions catalyzed by the microsomal fraction of rat liver.
Prodrugs (25 and 250 μM) were tested for activation by liver microsomes isolated from rats induced with dexamethasone to enhance CYP3A4 activity (Human Biologics Inc., Phoenix Ariz.). Reactions were conducted in 0.1 M KH2PO4, pH 7.4, in the presence of 2 mM NADPH and liver microsomes (1 mg/mL). Reaction mixtures were incubated for 5 minutes in an Eppendorf Thermomixer 5436 (37° C., speed 6). Reactions were terminated by the addition of 1.5 volumes of methanol. The resulting extracts were clarified by centrifugation at 14,000 rpm in an Eppendorf microfuge (20 minutes). The supernatants (200 μL) were evaporated under vacuum and heat to dryness before resuspending in 80 μL of buffer A (see below) for PMEA analysis. Spiked standards of 9-[2-(phosophonomethoxy)ethyl]adenine, (PMEA, lot 980397, Metabasis Therapeutics) were prepared in the same reaction mixture and processed in an identical fashion. After resuspension, samples were analyzed by reverse phase HPLC (Altima C-18 column) with use of an ion-pairing buffer (Buffer A) consisting of 10 mM ammonium phosphate, 2.5 mM octyltriethylammonium phosphate, pH 5.5. Samples were loaded in Buffer A and eluted with a methanol gradient from 40% to 80% over 20 minutes. Detection was at 265 nm.

[4] = Solubility and stability of the mesylate salt of Compound 54 in water; type: physicochemical
Method: Ten Compound 54 salt forms (L-tartartric, succinic, maleic, L-malic, D-malic, citric, hydrochloric, phosphoric, nitric, methane-sulfonic acids) were evaluated to identify the best salt form to selectively crystallize out the cis-diastereomer from cis:trans mixtures following the prodrug coupling procedure. Solubility and stability of the mesylate salt of Compound 54 were analyzed in water.

human liver microsomes = assay: Cis versus trans prodrug activation in human liver microsomes; type: in vitro ADME; conditions: 100 μM prodrug, 2 mg/mL human liver microsomes; for Activation Rate: 5 minutes, 37° C.
Text: The activation rates of cis (Compound 56, lot #20010093) and trans (9-{2-[2,4-trans-(S)-(+)-4-(3-chlorophenyl)-2-oxo-1,3,2-dioxaphosphorinan-2-yl]methoxyethyl} adenine, (lot 20010195) PMEA prodrugs was compared in order to establish which prodrug diastereomer is activated the most efficiently in human liver microsomes.
Human liver microsomes (mixed pool) were purchased from In Vitro Technologies (Lot RQX). […] Reactions were quenched with 60% methanol.

[5] = 30 mg/kg PMEA equivalents, in water, normal male rats
Method: Compound 56 was solubilized in water for intravenous and oral administration. […] Liver organ concentrations of PMEApp were determined as indicated in Example I.

[6] = test system: freshly isolated rat hepatocytes; assay: PMEApp accumulation in rat hepatocytes following incubation with Compound 56 and PMEA (25 μM); type: cell-based; conditions: 0–4 h, rat hepatocytes 20 mg/ml
Method: Hepatocyte pellets were immediately sonicated in 300 μl of ice-cold acetonitrile followed by the addition of 200 μl of water. Hepatocyte extracts were centrifuged for 20 minutes in an Eppendorf centrifuge at 4° C. and supernatants from the extracts were transferred to a fresh tube. Hepatocyte extract supernatants were evaporated to dryness under vacuum and then resuspended in 200 μl of water. PMEApp concentrations were quantified by LC-MS/MS (negative-ion mode) based on authentic PMEApp standards spiked into hepatocyte extracts. Ten microliter samples were loaded onto a Phenomenex Luna […] C8 column (50×2 mm) in 20 mM N-N-dimethylhexylamine, 10 mM propionic acid and eluted with a gradient of methanol from 20–64% over 5.5 minutes. An API 2000 triple quadrupole mass spectrometer fitted with a pneumatically-assisted electrospray interface was used to quantify the negative ion (PO3^−) using a Multiple Reaction Monitoring (MRM) technique.

[7] = humans; i.v. dose; cited from earlier work
[8] = oral administration, species not stated; cited from earlier work
[9] = cited from earlier work
[10] = cited from earlier work; remark: listed apart in the source
[11] = Plasma and urine PMEA following oral Compound 4 and bis POM PMEA in rats; type: in vivo, rat; conditions: 30 mg/kg PMEA equivalents p.o.
Method: PMEA levels (0–12 h) were quantified in plasma by fluorescence HPLC following chloroacetaldehyde derivatization. PMEA levels in urine were quantified 48 hours after treatment.
Plasma drug levels: PMEA was determined in plasma by a modification of the procedure described in the literature (Shaw J P, Louie M S, Krishnamurthy V V, Arimilli M N, Jones R J, Bidgood A M, Lee W A, & Cundy K C, Drug Metabolism and Disposition, 25:362–366 (1997)). Plasma (100 μL) samples were extracted with 2 volumes of 0.1% TFA in acetonitrile. Following centrifugation to remove the precipitate, the supernatant was evaporated to dryness. The dried plasma was reconstituted with 200 μL of the derivatization cocktail consisting of 0.34% chloroacetaldehyde in 100 mM sodium acetate pH 4.5 and incubated at 95° C. for 40 min. The samples were evaporated to dryness and reconstituted with mobile phase for analysis by HPLC. The derivatized PMEA was analyzed by an HPLC system (Hewlett Packard 1090) consisting of a Beckman Ultrasphere ODS 4.6×150 mm (5 μm) column developed with a 20-min gradient of 0–30% acetonitrile in 20 mM potassium phosphate pH 6.2. Fluorescence was monitored at an excitation and emission wavelength of 240 and 420 nm, respectively. The column temperature was 40° C. and the flow rate was 1.5 mL/min. The derivatized PMEA was detected and quantified by comparison to an authentic standard prepared in plasma and eluted at approximately 6 minutes. The limit of quantitation of PMEA, was 0.25 μg/mL.
Urinary excretion studies: The percent excretion of PMEA in urine was assessed by a modification of a previously described procedure (Russell J W, Marrero D, Whiterock V J, & Klunk L J, J Chromatog, 572:321–326 (1991)). Aliquots (0.25–0.5 mL) of urine samples and spiked standards were incubated with an equal volume of 17% (v/v) of 50% chloroacetaldehyde in 100 mM sodium acetate pH 4.5 at 50° C. for 4 hrs. Following centrifugation, the supernatant was analyzed by the HPLC method described in the previous section.

[12] = 30 mg/kg PMEA equivalents p.o., rats
Method: Intact prodrug and the metabolite 9-[2-(phosophonomethoxy)ethyl]adenine (PMEA) and the respective mono-acids were measured in the plasma at 0 (predose), 0.33, 1, 3, 5, 8, and 12 hrs post dose by HPLC using fluorescence detection. The pharmacokinetic parameters were calculated based on noncompartmental analysis of the concentration-time profile.

[13] = dog, after bis POM PMEA, Cundy et al. 1997; cited from earlier work
[14] = cited from earlier work; remark: listed apart in the source
[15] = cited from earlier work; remark: listed apart in the source
[16] = Tissue distribution of PMEA equivalents after oral tritiated Compound 4 and bis POM PMEA in rats; conditions: p.o.
Method: Total tritium counts were analyzed in solubilized samples of liver organ, kidney, plasma, urine, red blood cells, small intestine, as well as small intestine contents and feces obtained at various time points over 24 hours. Liver organ specificity was assessed by comparison of the temporal profiles of total tritium in liver organ versus kidney, small intestine, plasma, and red blood cells. Metabolite profiles in perchloric acid extracts of liver organ, kidney, small intestine, feces and urine were analyzed by HPLC.

[17] = 25 μM prodrug, 1 mg/mL microsomes, 2 mM NADPH, 5 minutes, 37° C., PMEA formation
[18] = 250 μM prodrug, 1 mg/mL microsomes, 2 mM NADPH, 5 minutes, 37° C., PMEA formation

Nc1ncnc2c1ncn2CCOCP1(=O)OCCC(c2ccccc2)O1 (mixture of isomers) [Compound 1]
Rats, PMEApp levels in liver organ @ 8 hr., 30 mg/kg, p.o. [1]: 0.6 nmol/g

Nc1ncnc2c1ncn2CCOCP1(=O)OCCC(c2ccncc2)O1 (mixture of isomers) [Compound 2]
Rat Hepatocytes, PMEApp formation, 250 μM, AUC 0–4 h [2]: 106.8 nmol·h/g

Nc1ncnc2c1ncn2CCOCP1(=O)OCCC(c2cc(Cl)cc(Cl)c2)O1 (mixture of isomers) [Compound 3]
Activation Rate, Dex. Rat Liver Microsomes, 25 μM [3]: 2.2 nmol/min/mg | Activation Rate, Dex. Rat Liver Microsomes, 250 μM [3]: 1.9 nmol/min/mg

Nc1ncnc2c1ncn2CCOCP1(=O)OCCC(c2ccc(Br)c(F)c2)O1 (mixture of isomers) [Compound 5]
Activation Rate, Dex. Rat Liver Microsomes, 25 μM [3, 17]: 1.3 nmol/min/mg | Activation Rate, Dex. Rat Liver Microsomes, 250 μM [3, 18]: 1.5 nmol/min/mg | Rats, PMEApp levels in liver organ @ 8 hr., 30 mg/kg, p.o. [1]: 2.6 nmol/g

Nc1ncnc2c1ncn2CCOCP1(=O)OCCC(c2cccc(Br)c2)O1 (mixture of isomers) [Compound 7]
Rats, PMEApp levels in liver organ @ 8 hr., 30 mg/kg, p.o. [1]: 2.2 nmol/g

Nc1ncnc2c1ncn2CCOCP1(=O)OCCC(c2cc(F)cc(F)c2)O1 (mixture of isomers) [Compound 10]
Rats, PMEApp levels in liver organ @ 8 hr., 30 mg/kg, p.o. [1]: 2.2 nmol/g

Cc1ccc(C2CCOP(=O)(COCCn3cnc4c(N)ncnc43)O2)cn1 (mixture of isomers) [Compound 18]
Activation Rate, Dex. Rat Liver Microsomes, 25 μM [3, 17]: <0.5 nmol/min/mg | Activation Rate, Dex. Rat Liver Microsomes, 250 μM [3, 18]: 0.6 nmol/min/mg

CS(=O)(=O)O.Nc1ncnc2c1ncn2CCOCP1(=O)OCC[C@@H](c2cccc(Cl)c2)O1 (stereo in doubt) [Compound 56, 9-{2-[2,4-cis-(S)-(+)-4-(3′-Chlorophenyl)-2-oxo-1,3,2-dioxaphosphorinan-2-yl]metboxyethyl}adenine Methanesulfonate]
Decomposition of dosing solutions ([4]; 30 and 300 mg/ml in water, 5 days, room temperature): < 10% | Solubility in water ([4]; water): > 300 mg/mL | Activation Rate (human liver microsomes): 0.45 ± 0.01 nmol/mg/min | OBAV (ratio of AUC of liver organ PMEApp oral vs i.v.) [5]: 42%

Nc1ncnc2c1ncn2CCOCP1(=O)OCC[C@@H](c2cccc(Cl)c2)O1 (stereo in doubt) [trans-, 9-{2-[2,4-trans-(S)-(+)-4-(3-chlorophenyl)-2-oxo-1,3,2-dioxaphosphorinan-2-yl]methoxyethyl} adenine]
Activation (below measureable detection limit, text) (human liver microsomes): < 0.05 nmol/min/mg | Activation Rate (human liver microsomes): ≦0.05 nmol/mg/min.

Nc1ncnc2c1ncn2CCOCP1(=O)OCCC(c2ccccc2Br)O1 (centres unmarked) [Compound 6]
Rats, PMEApp levels in liver organ @ 8 hr., 30 mg/kg, p.o. [1]: 7.1 nmol/g

Nc1ncnc2c1ncn2CCOCP(=O)(O)O [PMEA, 9-(2-phosphonylmethoxyethyl)adenine]
AUC0-4h PMEApp levels in hepatocytes [6]: 84 nmol·h/g | Dose excreted renally / renally cleared [7]: 98% | Oral bioavailability [8]: < 10% | Oral bioavailability in monkeys [9]: < 1% | Oral bioavailability in humans [10]: < 12%

CC(C)(C)C(=O)OCOP(=O)(COCCn1cnc2c(N)ncnc21)OCOC(=O)C(C)(C)C [bis POM PMEA]
AUC0-12h of PMEA in plasma ([11]; fasted rats): 21.3 µM·h | Urinary levels of PMEA ([11]; rats, urine 48 hours after treatment): 20.6 % dose | Intact prodrug in plasma [12]: not detected | PMEA AUC (dose-normalized plasma), literature [13]: 10.9 | Oral bioavailability in rats [14]: 38% | Oral bioavailability in monkeys [9]: 25% | Oral bioavailability in humans [10]: 41% | Half-life in human serum [15]: < 5 min | Dose excreted in feces in the form of PMEA [16]: 43%
